Data set [1] relates to S. aureus ATCC 29213 LMG 10147. The experiment in a line: microbe, parasite or virus in culture. The class given is cell-based. Conditions: Staphylococcus aureus, negative control = 100, read-out: % of growth at 25 PPM compared to negative control, S. aureus ATCC 29213 LMG 10147.
For data set [2], the system named is HSV-1 (KOS). The data set can be described thus: HSV-1 (KOS)-induced cytopathicity in human embryo fibroblast E6SM. Conditions: Human alphaherpesvirus 1. The class given is cell-based, Herpes Simplex Virus. A general note: Protection from cytopathic effect is a common read-out in antiviral testing.
The subject of data set [3] is human T-lymphocyte cells (Molt4/C8). The experiment in a line: Inhibition of proliferation of human T-lymphocyte cells Molt4/C8. The class given is cell-based. Conditions: cytostatic activity, 50% inhibitory concentration. The method, then:
(§1) The compounds were tested for antitumor activity via the inhibitory effects on the proliferation of murine leukemia cells (L1210/0), murine mammary carcinoma cells (FM3A) and human T-lymphocyte cells (Molt4/C8), (CEM/0). […] Compound A1 and Compound A4 show no effect at concentrations up to 200 ppm.

Data set [4] deals with T. mentagrophytes ATCC 9233 IHEM 10342. The experiment in a line: microbe, parasite or virus in culture. Conditions: Trichophyton mentagrophytes, ATCC9233, negative control = 100, read-out: % of growth at a dose of 25 PPM compared to the negative control, T. mentagrophytes ATCC 9233 IHEM 10342. The class given is cell-based.
In data set [5] the test system is CMV David Strain. The data set can be described thus: CMV plaque formation in HEL cells, David strain. The class given is cell-based, human Cytomegalovirus. Conditions: Human betaherpesvirus 5, virus plaque formation, virus input 100 PFU.
The test system of data set [6] is HSV-2 (G). The data set can be described thus: HSV-2 (G)-induced cytopathicity in human embryo fibroblast E6SM. The class given is cell-based, Herpes Simplex Virus. Conditions: Human alphaherpesvirus 2.
Data set [7] concerns VV. The experiment in a line: VV-induced cytopathicity in human embryo fibroblast E6SM. Conditions: Orthopoxvirus vaccinia, E6SM, read-out: EC50 VV (E6SM). The class given is cell-based, Vaccinia Virus.
In data set [8] the test system is A. fumigatus IHEM 2895. The experiment in a line: microbe, parasite or virus in culture. Conditions: Aspergillus fumigatus, IHEM2895, negative control = 100, read-out: % of growth at a dose of 25 PPM compared to the negative control, A. fumigatus IHEM 2895. The class given is cell-based.
Data set [9] has as its system VZV 07/1. The data set can be described thus: microbe, parasite or virus in culture. The class given is cell-based, Varicella Zoster Virus. Conditions: Human alphaherpesvirus 3, HEL, read-out: EC50 VZV (HEL) 07/1.
Data set [10] relates to murine leukemia cells (L1210/0). The experiment in a line: Inhibition of proliferation of murine leukemia cells L1210/0. The class given is cell-based. The protocol:
as §1

Data set [11] concerns human T-lymphocyte cells (CEM/0). The experiment in a line: Inhibition of proliferation of human T-lymphocyte cells CEM/0. The class given is cell-based. Conditions: CCRF-CEM, cytostatic activity, 50% inhibitory concentration. The protocol:
as §1

In data set [12] the test system is HIV-2 (ROD). The data set can be described thus: HIV-2 (ROD)-induced cytopathicity in human CEM cell cultures. The class given is cell-based. Conditions: Human immunodeficiency virus 2, CCRF-CEM.
Data set [13] deals with E. coli ATCC 25922. The experiment in a line: microbe, parasite or virus in culture. Conditions: Escherichia coli, ATCC25922, negative control = 100, read-out: % of growth at 25 PPM compared to negative control, E. coli ATCC 25922. The class given is cell-based.
For data set [14], the system named is CMV AD-169 Strain. The data set can be described thus: CMV plaque formation in HEL cells, AD-169 strain. The class given is cell-based, human Cytomegalovirus. Conditions: Human betaherpesvirus 5, AD169; virus plaque formation, HEL cells; virus input 100 PFU.
The test system of data set [15] is murine mammary carcinoma cells (FM3A). The experiment in a line: Inhibition of proliferation of murine mammary carcinoma cells FM3A. The class given is cell-based. Conditions: Mus musculus, cytostatic activity, 50% inhibitory concentration, read-out: IC50 FM3A/0. The protocol:
as §1

The test system of data set [16] is VZV OKA. The data set can be described thus: microbe, parasite or virus in culture. The class given is cell-based, Varicella Zoster Virus. Conditions: Human alphaherpesvirus 3, HEL, read-out: EC50 VZV (HEL) OKA.
The test system of data set [17] is E. faecalis ATCC 29212 LMG 8222. The experiment in a line: microbe, parasite or virus in culture. The class given is cell-based. Conditions: Enterococcus faecalis, negative control = 100, read-out: % of growth at 25 PPM compared to negative control, E. faecalis ATCC 29212 LMG 8222.
In data set [18] the test system is P. aeruginosa ATCC 27853 LMG 16217. The experiment in a line: microbe, parasite or virus in culture. The class given is cell-based. Conditions: Pseudomonas aeruginosa, negative control = 100, read-out: % of growth at 25 PPM compared to negative control, P. aeruginosa ATCC 27853 LMG 16217.
The test system of data set [19] is C. neoformans ATCC 90112 IHEM 9558. The data set can be described thus: microbe, parasite or virus in culture. The class given is cell-based. Conditions: Cryptococcus neoformans, ATCC90112, negative control = 100, read-out: % of growth at a dose of 25 PPM compared to the negative control, C. neoformans ATCC 90112 IHEM 9558.
In data set [20] the test system is HIV-1 (IIIB). The data set can be described thus: microbe, parasite or virus in culture. The class given is cell-based. Conditions: Human immunodeficiency virus 1, IIIB, CCRF-CEM; HIV-induced cytopathicity in human CEM cell cultures.
In data set [21] the test system is Candida albicans ATCC 24433 IHEM 10284. The data set can be described thus: microbe, parasite or virus in culture. The class given is cell-based. Conditions: ATCC24433, negative control = 100, read-out: % of growth at a dose of 25 PPM compared to the negative control, Candida albicans ATCC 24433 IHEM 10284.

Experimental findings from patent US7368475B2, “Furanose-type bicyclic carbohydrates with biological activity” (Kemin Pharma BVBA, priority 2003, dated 2008) are described below.

As usually defined, the melting point is the temperature, or range, at which the solid turns liquid. For the compound `OC[C@H]1O[C@@H](c2ccccc2)[C@H](O)[C@@H]1O` [Compound A1, β-D-1-Deoxy-1-phenyl-ribofuranose], the melting point came out at 118 °C. Further, the activity at 25 ppm in data set [1] stood at 96.7%. In [2], the EC50 was above 400 µg/mL. For the same compound, the IC50 in data set [3] is above 200 µg/mL. For the same compound, the activity at 25 ppm in [4] was found to be 62.4%. In [5], the IC50 is above 50 µg/mL. In data set [6], this compound had an EC50 above 400 µg/mL. In addition, the EC50 in data set [7] is above 400 µg/mL. For the same compound, the activity at 25 ppm in data set [8] is 106%. Further, the EC50 in [9] is above 50 µg/mL. Moreover, in [10] (Mus musculus, L1210/0, read-out: IC50 L1210/0), the IC50 was above 200 µg/mL. Besides, the “effect on cell proliferation (in words)” value in data set [10] (at concentrations up to 200 ppm, L1210/0, FM3A, Molt4/C8, CEM/0) is “no effect”. Also, the IC50 in data set [11] is above 200 µg/mL. In data set [12], the EC50 is above 100 µg/mL. Further, the activity at 25 ppm in [13] worked out at 93.4%. Moreover, the IC50 in data set [14] is above 50 µg/mL. For the same compound, the IC50 in data set [15] was above 200 µg/mL. Further, the EC50 in [16] is above 50 µg/mL. In data set [17], the activity at 25 ppm is 96%. Also, the activity at 25 ppm in data set [18] turned out to be 92.7%. In [19], the activity at 25 ppm amounted to 93.3%. In addition, the EC50 in data set [20] is above 100 µg/mL. Further, the activity at 25 ppm in [21] stood at 89.2%.
